Measurements: patent publication US4382088A, “4,7-Dihydro-4,7-dioxi-1H-cyclohepta[b]pyridine derivatives” (Ayerst, McKenna & Harrison, Inc., priority 1981, dated 1983)

Tests used:
aldose reductase [1] = settings: Dvornik et al. 1973; Peterson et al. 1979; cited from earlier work
aldose reductase [2] = target: T1, aldose reductase (Bos taurus, UniProt P16116); test: in vitro aldose reductase inhibition (modified Hayman and Kinoshita procedure, enzyme from bovine lens); type: biochemical; settings: for inhibition at 10 µM: 10^-5 molar, read-out: % Inhibition at Different Molar Concentrations (in vitro), 10^-5; for inhibition at 1 µM: 10^-6 molar, read-out: % Inhibition at Different Molar Concentrations (in vitro), 10^-6; for inhibition at 0.1 µM: 10^-7 molar, read-out: % Inhibition at Different Molar Concentrations (in vitro), 10^-7
T1 construct: preparation of the enzyme from bovine lens; from tissue; host or cells: bovine lens
Procedure: In the present case the procedure of Hayman and Kinoshita is modified in that the final chromatography step is omitted in the preparation of the enzyme from bovine lens.
The following results were obtained when the foregoing listed compounds of formula I were evaluated in the above in vitro test.

[3] = hygroscopicity of analytical sample; type: physicochemical; settings: analytical sample dried under reduced pressure at 140° C.
Procedure: 3-(Ethoxycarbonyl)-4,7-dihydro-6-methoxy-4,7-dioxo-1H-cyclohepta[b]pyridine-1-acetic acid ethyl ester (2.5 g), described in example 5, was heated at reflux in 15% (w/v) aqueous HCl for 2 hr. The resulting precipitate was collected, washed with water and acetone, and recrystallized from water to give 1.8 g of the title compound; mp 272°-274° C.; nmr (DMSO-d6) δ3.95 (s, 3H), 5.5 (s, 2H), 7.28 & 7.75 (2d, 2H), 7.95 (s, 1H), 9.0 (1H, s); ir (Nujol*) 2900, 1700, 1565, 1265, 1165 cm^-1; uv λmax (MeOH) 347 nm (ε11,630), 306 (10,470), 266 (21,365), 249 (32,290). An analytical sample dried under reduced pressure at 140° C. was hygroscopic; Anal Calcd for C14 H11 NO7 : C, 55.09% H, 3.63% N, 4.59%; Found: C, 54.41% H, 3.60% N, 4.55%.

| Structure (SMILES) | aldose reductase inhibition reported in the literature, in words (aldose reductase [1]) | inhibition at 10 µM (aldose reductase [2]) | inhibition at 1 µM (aldose reductase [2]) | inhibition at 0.1 µM (aldose reductase [2]) | hygroscopicity [3] |
| --- | --- | --- | --- | --- | --- |
| O=C(O)CN1C(=O)c2cccc3cccc(c23)C1=O [1,3-Dioxo-1H-benz[de]isoquinoline-2(3H)-acetic acid] | effective inhibitor of aldose reductase | – | – | – | – |
| CCOC(=O)COc1cc2c(=O)c(C(=O)OCC)cn(CC(=O)OCC)c2ccc1=O [Example 5 (R^3 = OCH2 COOC2 H5), 3-(ethoxycarbonyl)-6-[(2-ethoxy-2-oxoethyl)oxy]-4,7-dihydro-4,7-dioxo-1H-cyclohepta[b]pyridine-1-acetic acid ethyl ester] | – | 40% | – | – | – |
| O=C(O)COc1cc2c(=O)c(C(=O)O)cn(CC(=O)O)c2ccc1=O [Example 7 (R^3 = OCH2 COOH), 3-carboxy-6-[(carboxymethyl)oxy]-4,7-dihydro-4,7-dioxo-1H-cyclohepta[b]pyridine-1-acetic acid monohydrate] | – | 97% | 88% | 31% | – |
| COc1cc2c(=O)c(C(=O)O)cn(CC(=O)O)c2ccc1=O [Example 7 (R^3 = OCH3), 3-Carboxy-4,7-dihydro-6-methoxy-4,7-dioxo-1H-cyclohepta[b]pyridine-1-aceticAcid] | – | 89% | 79% | 30% | hygroscopic |
| O=C(O)Cn1cc(C(=O)O)c(=O)c2cc(OCc3ccccc3)c(=O)ccc21 [Example 8, 6-Benzyloxy-3-carboxy-4,7-dihydro-4,7-dioxo-1H-cyclohepta[b]pyridine-1-acetic Acid] | – | 88% | 79% | 37% | – |
| O=C1NC(=O)[C@@]2(CCOc3ccc(F)cc32)N1 [sorbinil, (S)-6-Fluoro-2,3-dihydrospiro(4H-1-benzopyran-4,4'-imidazolidine)-2',5'-dione] | aldose reductase inhibiting properties | – | – | – | – |
